Laboratory results published in US7119075B2, “Use of herbal agents for potentiation of bioefficacy of anti infectives” (priority 2003, dated 2006).
Values after ≈ are worked out from the molar mass of the structure shown.

Assays:
Format in all cases: cell-based
M. tuberculosis = assay: MIC of drugs alone and with bioenhancer (Table 7); settings: for MIC: Mycobacterium tuberculosis, Drug alone
Gram negative bacteria = assay: organism not typed; settings: for MIC: read-out: MIC Drug alone
Gram positive bacteria = assay: organism not typed; settings: for MIC: read-out: MIC Drug alone
Yeast = assay: MIC of drugs alone and with bioenhancer (Table 7)
Filamentous fungi = assay: organism not typed

For `CC[C@@H](CO)NCCN[C@@H](CC)CO` [Ethambutol], the MIC (M. tuberculosis) was 1 to 5 µg/mL.
For `CC1COc2c(N3CCN(C)CC3)c(F)cc3c(=O)c(C(=O)O)cn1c23` (stereo not shown) [Ofloxacin], the MIC (Gram negative bacteria) was 0.06 to 32 µg/mL (≈ 0.166 to 88.6 µM), the “MIC Drug alone” value (M. tuberculosis) was 0.5 to 25 µg/mL and the MIC (M. tuberculosis) was 0.5 to 2.5 µg/mL. It also gave an MIC (Gram positive bacteria) of 0.12 to 32 µg/mL (≈ 0.332 to 88.6 µM).
`NNC(=O)c1ccncc1` [Isoniazid] was tested, and the MIC (M. tuberculosis) was 0.12 to 32 µg/mL.
With `C[C@@H]1[C@H](O)[C@@H](C)/C=C/C=C/C=C/C=C/C=C/C=C/C=C/[C@H](O[C@@H]2O[C@H](C)[C@@H](O)[C@H](N)[C@@H]2O)C[C@@H]2O[C@](O)(C[C@@H](O)C[C@@H](O)[C@H](O)CC[C@@H](O)C[C@@H](O)CC(=O)O[C@H]1C)C[C@H](O)[C@H]2C(=O)O` [Amphotericin B] the “MIC Drug alone” value (Yeast; Drug alone) was 0.25 to 2.0 µg/mL and the “MIC Drug alone” value (Filamentous fungi; Drug alone) was 0.25 to 4 µg/mL.
Work on `NCC[C@H](O)C(=O)N[C@@H]1C[C@H](N)[C@@H](O[C@H]2O[C@H](CN)[C@@H](O)[C@H](O)[C@H]2O)[C@H](O)[C@H]1O[C@H]1O[C@H](CO)[C@@H](O)[C@H](N)[C@H]1O` [Amikacin] yielded an MIC (Gram negative bacteria) of 0.12 to 4 µg/mL (≈ 0.205 to 6.83 µM), an MIC (M. tuberculosis) of 0.5 to 1 µg/mL and an MIC (Gram positive bacteria) of 2 to 32 µg/mL (≈ 3.42 to 54.6 µM).
For `CN[C@H](CC(C)C)C(=O)N[C@H]1C(=O)N[C@@H](CC(N)=O)C(=O)N[C@H]2C(=O)N[C@H]3C(=O)N[C@H](C(=O)N[C@H](C(=O)O)c4cc(O)cc(O)c4-c4cc3ccc4O)[C@H](O)c3ccc(c(Cl)c3)Oc3cc2cc(c3O[C@@H]2O[C@H](CO)[C@@H](O)[C@H](O)[C@H]2O[C@H]2C[C@](C)(N)[C@H](O)[C@H](C)O2)Oc2ccc(cc2Cl)[C@H]1O` [Vancomycin], the MIC (Gram positive bacteria) was 0.03 to 8 µg/mL (≈ 0.0207 to 5.52 µM).
`CC(=O)N1CCN(c2ccc(OCC3COC(Cn4ccnc4)(c4ccc(Cl)cc4Cl)O3)cc2)CC1` (stereo not shown) [Ketoconazole] showed an MIC (Yeast; Saccharomyces cerevisiae, read-out: MIC Drug alone) of 0.12 to 0.5 µg/mL and an MIC (Filamentous fungi; read-out: MIC Drug alone) of 0.25 to 2 µg/mL (≈ 0.47 to 3.76 µM).
For `COCC1=C(C(=O)O)N2C(=O)[C@@H](NC(=O)/C(=N\OC)c3csc(N)n3)[C@H]2SC1` [Cefpedoxime], the “MIC Drug alone” value (Gram negative bacteria; Drug alone) was 0.03 to 64 µg/mL and the “MIC Drug alone” value (Gram positive bacteria; Drug alone) was 0.12 to 16 µg/mL.
